The values below come from BindingDB's records for doi:10.1021/jm00055a010 (Salk Institute, 1993).

The pKi is the negative decadic logarithm of the Ki, by convention in mol/L. Read a low pKi as a high Ki.

Structures are written as SMILES. pKi: −log10 of the molar value.

The assay concerns the target T1, Neuropeptide Y receptor type 1 (Homo sapiens, UniProt P25929).
T1 sequence (P25929 whole entry): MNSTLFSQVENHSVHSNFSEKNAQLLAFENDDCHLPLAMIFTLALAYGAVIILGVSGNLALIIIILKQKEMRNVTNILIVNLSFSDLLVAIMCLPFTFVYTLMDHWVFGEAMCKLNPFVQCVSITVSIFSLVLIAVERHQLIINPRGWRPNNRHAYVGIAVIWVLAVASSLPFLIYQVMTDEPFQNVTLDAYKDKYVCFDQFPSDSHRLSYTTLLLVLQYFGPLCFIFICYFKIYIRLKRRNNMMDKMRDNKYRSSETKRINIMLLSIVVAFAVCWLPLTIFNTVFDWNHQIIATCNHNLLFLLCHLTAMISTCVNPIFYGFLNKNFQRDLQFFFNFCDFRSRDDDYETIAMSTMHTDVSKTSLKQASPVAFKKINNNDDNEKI
As to the kind of experiment: Tested against neuropeptide Y1 receptors using SK-N-MC human neuroblastoma cells.

With `CC[C@H](C)[C@H](NC(=O)[C@H](CC(C)C)NC(=O)[C@H](CC(N)=O)NC(=O)[C@@H](NC(=O)[C@H]1CNC(=O)CC[C@H](NC(=O)[C@@H](N)Cc2ccc(O)cc2)C(=O)N[C@@H](CO)C(=O)N[C@@H](CCCCN)C(=O)N2CCC[C@H]2C(=O)NCC(=O)N[C@@H](CCCN=C(N)N)C(=O)N[C@@H](Cc2c[nH]cn2)C(=O)N1)[C@@H](C)CC)C(=O)N[C@H](C(=O)N[C@@H](CCCN=C(N)N)C(=O)N[C@@H](CCC(N)=O)C(=O)N[C@@H](CCCN=C(N)N)C(=O)N[C@@H](Cc1ccc(O)cc1)C(N)=O)[C@@H](C)O`, the pKi was less than 6.00.
